In ChEMBL document CHEMBL4616610, “Discovery of a novel unsymmetrical structural class of HCV NS5A inhibitors with low picomolar antiviral activity” (Bioorg Med Chem Lett, 2020) one finds EC50 data, which are given here for 9 compounds.

Experiment [1] addresses T1, Nonstructural protein 5A (Hepatitis C virus, UniProt Q5L478).
T1 sequence (Q5L478 whole entry): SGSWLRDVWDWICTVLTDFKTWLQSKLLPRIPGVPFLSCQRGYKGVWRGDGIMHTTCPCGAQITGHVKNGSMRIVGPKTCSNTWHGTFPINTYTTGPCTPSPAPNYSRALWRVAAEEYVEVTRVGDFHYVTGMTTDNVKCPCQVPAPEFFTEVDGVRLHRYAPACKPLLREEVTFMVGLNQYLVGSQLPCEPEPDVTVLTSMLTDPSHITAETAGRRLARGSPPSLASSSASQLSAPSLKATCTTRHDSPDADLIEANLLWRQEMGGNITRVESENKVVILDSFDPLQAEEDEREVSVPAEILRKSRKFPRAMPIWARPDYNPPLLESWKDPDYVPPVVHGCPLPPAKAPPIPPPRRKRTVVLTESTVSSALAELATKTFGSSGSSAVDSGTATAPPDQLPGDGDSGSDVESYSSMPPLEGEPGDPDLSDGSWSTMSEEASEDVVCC
As to the kind of experiment: Inhibition of NS5A in Hepatitis C virus subtype 1b replicon infected in human HuH7 cells assessed as reduction in viral replication. The class given is cell-based. Conditions: huh-7; call rule not given here.

Experiment [2] is described as follows: Inhibition of NS5A Q30K mutant in Hepatitis C virus subtype 1a replicon infected in human HuH7 cells assessed as reduction in viral replication. Conditions: Huh-7. Type of experiment: cell-based. For orientation: In antiviral work, replicon cells carry a viral genome segment that copies itself.
The nature of experiment [3]: Inhibition of NS5A Q30K mutant in Hepatitis C virus subtype 1a replicon assessed as reduction in viral replication using Ac-Asp-Glu-Asp (EDANS)-Glu-Glu-Abu-(COO) Ala-Ser-Lys (DABCYL)-NH2 as substrate measured after 72 hrs by FRET assay.
Experiment [4] is described as follows: Inhibition of NS5A in Hepatitis C virus subtype 1b replicon assessed as reduction in viral replication using Ac-Asp-Glu-Asp (EDANS)-Glu-Glu-Abu-(COO) Ala-Ser-Lys (DABCYL)-NH2 as substrate measured after 72 hrs by FRET assay.

pEC50: −log10 of the molar value.

Regarding `CCCC(=O)Nc1ccc(-c2ccc(-c3c[nH]c([C@@H]4CCCN4C(=O)[C@H](NC(=O)N4CCCC4)c4ccccc4)n3)cc2)cc1`, in experiment [1], the EC50 result is reported as “Not Active”.

Consider `CCCC(=O)Nc1ccc(-c2ccc(-c3c[nH]c([C@@H]4CCCN4C(=O)[C@H](NC(=O)CCCCCCc4ccccc4)c4ccccc4)n3)cc2)cc1`, for which, in experiment [1], the EC50 entry was “Not Active”.

For `CCCC(=O)Nc1ccc(-c2ccc(-c3c[nH]c([C@@H]4CCCN4C(=O)[C@H](NC(=O)N4CCC[C@H](NC(=O)OCc5ccccc5)C4)c4ccccc4)n3)cc2)cc1`, the EC50 result in experiment [1] is given as “Not Active”.

Regarding `CCCC(=O)Nc1ccc(-c2ccc(-c3c[nH]c([C@@H]4CCCN4C(=O)[C@H](NC(=O)CCCc4ccccc4)c4ccccc4)n3)cc2)cc1`, in experiment [1], the EC50 result is given as “Not Active”.

For `CCCC(=O)Nc1ccc(-c2ccc(-c3c[nH]c([C@@H]4CCCN4C(=O)[C@H](NC(=O)c4ccc(NC(=O)OCc5ccccc5)cc4)c4ccccc4)n3)cc2)cc1`, in experiment [1], the EC50 entry was “Not Active”.

As to `CCCC(=O)Nc1ccc(-c2ccc(-c3c[nH]c([C@@H]4CCCN4C(=O)[C@H](NC(=O)c4ccccc4)c4ccccc4)n3)cc2)cc1`, in experiment [1], the EC50 entry is “Not Active”.

For `COC1CCN(C(=O)Nc2ccc(-c3ccc(-c4c[nH]c([C@@H]5CCCN5C(=O)[C@H](NC(=O)N5CC[C@@H](NC(=O)OCc6ccccc6)C5)c5ccccc5)n4)cc3)cc2)CC1`, the pEC50 (usually the EC50 on a negative log10 scale, so that one unit is a factor of ten) in experiment [2] was 8.33.

For `CCCC(=O)Nc1ccc(-c2ccc(-c3c[nH]c([C@@H]4CCCN4C(=O)[C@H](NC(=O)c4ccccc4NC(=O)OCc4ccccc4)c4ccccc4)n3)cc2)cc1`, the EC50 result in experiment [1] is “Not Active”.

Turning to `COC(=O)N[C@H](C(=O)N1CCC[C@H]1c1ncc(-c2ccc(-c3ccc(-c4cnc([C@@H]5CCCN5C(=O)[C@@H](NC(=O)OC)C(C)C)[nH]4)cc3)cc2)[nH]1)C(C)C` [DACLATASVIR], the values for the pEC50 in experiment [3] and in experiment [4] were 5.91 and 11.05, respectively.
